{"source": "paper PMC8406418", "about": "(Journal of Natural Products, 2021)", "key": {"mouse KOR [1]": {"biological_target": "T1, mouse KOR (Mus musculus, UniProt P33534)", "T1 sequence (P33534 whole entry)": "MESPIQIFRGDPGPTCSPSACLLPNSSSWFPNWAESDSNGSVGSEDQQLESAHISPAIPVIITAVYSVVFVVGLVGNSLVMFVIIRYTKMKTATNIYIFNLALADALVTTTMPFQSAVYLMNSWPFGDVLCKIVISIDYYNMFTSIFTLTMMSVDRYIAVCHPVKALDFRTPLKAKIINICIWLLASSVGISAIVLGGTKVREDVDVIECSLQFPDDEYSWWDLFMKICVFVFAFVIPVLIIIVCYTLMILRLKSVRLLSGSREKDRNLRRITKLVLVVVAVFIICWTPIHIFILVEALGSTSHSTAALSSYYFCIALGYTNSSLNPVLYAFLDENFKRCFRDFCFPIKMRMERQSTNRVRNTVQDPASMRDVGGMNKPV"}, "mouse KOR [2]": {"biological_target": "T1, mouse KOR", "assay": "cell-based", "conditions": "for Emax: HEK293, read-out: Emax cAMP inhibition"}, "[3]": {"tested_on": "human T-cell proliferation", "design": "method as in PMID 23840803", "conditions": "cited from earlier work"}, "mouse KOR [4]": {"biological_target": "T1, mouse KOR", "assay": "biochemical"}, "mouse KOR [5]": {"biological_target": "T1, mouse KOR", "format": "cell-based", "design": "expressed in transfected cells; host or cells: HEK293 (transient, jetPRIME)"}, "[6]": {"tested_on": "untransfected HEK 293 cells", "format": "cell-based"}}, "note": "Several values for one entry are separate records, joined by “and”; a condition that tells them apart may be missing. Equal entries are not always repeated. Where two headings read alike, the source gives them in different places. Where a SMILES comes first, the peptide text is derived from it. Bridges are numbered along the chain shown (N, C = ends)."}
{"smiles": "CC[C@H]1CN2CCc3cc(OC)c(OC)cc3[C@@H]2C[C@@H]1C[C@H]1NCCc2cc(OC)c(OC)cc21", "note": "[Emetine]", "values": [{"measurement": "displacement of [3H]-DPN", "setting": "mouse KOR [1]; up to concentrations of 10 μM, 1 nM [3H]-DPN", "value": "did not displace the radioligand"}]}
{"smiles": "CC(C)C[C@@H]1NC(=O)CNC(=O)[C@H](CC(N)=O)NC(=O)[C@H](CCCNC(=N)N)NC(=O)[C@H]([C@@H](C)O)NC(=O)[C@@H]2CSSC[C@@H]3NC(=O)[C@H]([C@@H](C)O)NC(=O)CNC(=O)CNC(=O)[C@H](C(C)C)NC(=O)[C@@H]4CSSC[C@H](NC(=O)[C@H](CCCCN)NC(=O)[C@H](CSSC[C@H](NC(=O)[C@H](C(C)C)NC(=O)[C@@H]5CCCN5C1=O)C(=O)NCC(=O)N[C@@H](CCC(=O)O)C(=O)N[C@@H]([C@@H](C)O)C(=O)N4)NC(=O)CNC(=O)[C@@H]1CCCN1C(=O)[C@H]([C@@H](C)O)NC(=O)[C@H](CC(N)=O)NC3=O)C(=O)N[C@@H](CO)C(=O)N[C@@H](Cc1c[nH]c3ccccc13)C(=O)N1CCC[C@H]1C(=O)N[C@@H](C(C)C)C(=O)N2", "note": "[T20K, [T20K]kalata B1] (cyclo(CGETCVGGTCNTPGCKCSWPVCTRNGLPV); disulfide 1-15, 5-17, 10-22)", "values": [{"measurement": "increase in basal cAMP production", "setting": "mouse KOR [2]", "value": "~50", "unit": "%"}, {"measurement": "increase in efficacy of dyn A1–13 (cAMP)", "setting": "mouse KOR [2]", "value": "30–60%"}, {"measurement": "EC50", "setting": "mouse KOR [2]; EC50 cAMP inhibition", "value": "24000 nM and ~24000 nM"}, {"measurement": "Emax", "setting": "mouse KOR [2]", "value": "105 ± 5", "unit": "%"}, {"measurement": "potency to suppress lymphocyte proliferation", "setting": "[3]", "value": "2000 to 4000", "unit": "nM"}, {"measurement": "Ki", "setting": "mouse KOR [4]", "value": "2000 nM and ~2000 nM"}, {"measurement": "β-arrestin-2 recruitment (interaction of β-arrestin-2 and KOR)", "setting": "mouse KOR [5]", "value": "no interaction of β-arrestin-2 and KOR was detected"}]}
{"smiles": "CC[C@H](C)[C@@H]1NC(=O)[C@H](C(C)C)NC(=O)[C@H]([C@@H](C)O)NC(=O)[C@H](CO)NC(=O)[C@H](Cc2ccccc2)NC(=O)[C@@H]2CSSC[C@@H]3NC(=O)[C@H](C(C)C)NC(=O)[C@H](CCCCN)NC(=O)[C@H](CC(N)=O)NC(=O)[C@H](CCCCN)NC(=O)[C@@H]4CSSC[C@H](NC(=O)[C@H](CO)NC(=O)[C@H](CCC(=O)O)NC(=O)CNC(=O)[C@H](CSSC[C@H](NC(=O)CNC1=O)C(=O)N[C@@H](CO)C(=O)N4)NC(=O)[C@@H]1CCCN1C(=O)[C@H]([C@@H](C)CC)NC(=O)[C@H](C(C)C)NC(=O)CNC(=O)[C@H](CC(N)=O)NC(=O)[C@H](CCCNC(=N)N)NC(=O)[C@H](Cc1ccc(O)cc1)NC3=O)C(=O)N[C@@H](C(C)C)C(=O)N[C@@H](Cc1ccccc1)C(=O)N[C@@H]([C@@H](C)CC)C(=O)N1CCC[C@H]1C(=O)N2", "note": "[caripe 10] (cyclo(CFSTVIGCSCKNKVCYRNGVIPCGESCVFIP); disulfide 1-15, 8-23, 10-27)", "values": [{"measurement": "EC50", "setting": "mouse KOR [2]; EC50 cAMP inhibition", "value": "60200 nM and ~60000 nM"}, {"measurement": "Emax", "setting": "mouse KOR [2]", "value": "144 ± 12", "unit": "%"}, {"measurement": "Ki", "setting": "mouse KOR [4]", "value": "1200 ± 300", "unit": "nM"}, {"measurement": "displacement of [3H]-DPN by cyclotides", "setting": "mouse KOR [1]", "value": "strongest effect"}]}
{"smiles": "CC[C@H](C)[C@H](NC(=O)[C@H](CCCNC(=N)N)NC(=O)[C@H](CCCNC(=N)N)NC(=O)[C@H](CC(C)C)NC(=O)[C@H](Cc1ccccc1)NC(=O)CNC(=O)CNC(=O)[C@@H](N)Cc1ccc(O)cc1)C(=O)N[C@@H](CCCNC(=N)N)C(=O)N1CCC[C@H]1C(=O)N[C@@H](CCCCN)C(=O)N[C@@H](CC(C)C)C(=O)N[C@@H](CCCCN)C(N)=O", "note": "[dyn A1–13, Dyn A1–13 amide, reference compound]", "values": [{"measurement": "cAMP inhibition Emax ± SD", "setting": "mouse KOR [2]", "value": "115.5 ± 20.0% and 122.0 ± 21.6% and 133.2 ± 41.9 % and 160.3 ± 47.4 % and 158.8 ± 54.0 %"}, {"measurement": "EC50", "setting": "mouse KOR [2]; read-out: cAMP inhibition EC50 ± SD", "value": "8.8 ± 2.4", "unit": "nM"}, {"measurement": "changes in cAMP levels", "setting": "[6]", "value": "no changes in cAMP levels were observed"}, {"measurement": "EC50", "setting": "mouse KOR [5]; read-out: EC50 β-arrestin-2 recruitment", "value": "159 ± 92.4", "unit": "nM"}, {"measurement": "Ki", "setting": "mouse KOR [1]; read-out: Ki ± SD", "value": "0.4 nM and 0.3 nM"}]}
